{"source": "patent US7915259B2", "about": "“Diazabicyclononene derivatives and use thereof” (priority 2005, dated 2011)", "key": {"[1]": {"test_system": "double transgenic rats with human renin and human angiotensinogen", "assay": "Hemodynamic measurements (telemetry method) in hypertensive double transgenic rats", "assay_type": "in vivo, rat", "conditions": "female double transgenic rats", "description": "Hemodynamic Measurements (Telemetry Method)\nAnimals—Female double transgenic rats with human renin and human angiotensinogen were purchased from RCC Ltd, Füllingsdorf, Switzerland. All animals were maintained under identical conditions and had free access to normal pelleted rat chow and water. Rats were initially treated with enalapril (1 mg/kg/day) during 2 months. After approximately two weeks following cessation of enalapril treatment the double transgenic rats become hypertensive and reach mean arterial blood pressures in the range of 160-170 mmHg.\nTransmitter implantation—The rats were anaesthetised with a mixture of 90 mg/kg Ketamin-HCl (Ketavet, Parke-Davis, Berlin FRG) and 10 mg/kg xylazin (Rompun, Bayer, Leverkusen, FRG) i.p. The pressure transmitter was implanted under aseptic conditions into the peritoneal cavity with the sensing catheter placed in the descending aorta below the renal arteries pointing upstream. The transmitter was sutured to the abdominal musculature and the skin closed.\nTelemetry-System—Telemetry units were obtained from Data Sciences (St. Paul, Minn.). […] The tip of the catheter was filled with a viscous gel that prevents blood reflux and was coated with an antithrombogenic film to inhibit thrombus formation. The implants (length=2.5 cm, diameter=1.2 cm) weighted 9 g and have a typical battery life of 6 months. A receiver platform (RPC-1, Data Sciences) connected the radio signal to digitized input that was sent to a dedicated personal computer (Compaq, deskpro). Arterial pressures were calibrated by using an input from an ambient-pressure reference (APR-1, Data Sciences). Systolic, mean and diastolic blood pressure was expressed in millimeter of mercury (mmHg).\n[…] The effect of the test substance is expressed as maximal decrease of mean arterial pressure (MAP) in the treated group versus the control group."}, "[2]": {"molecular_target": "T1, recombinant human renin (Homo sapiens, UniProt P00797)", "T1 sequence (P00797 67-406)": "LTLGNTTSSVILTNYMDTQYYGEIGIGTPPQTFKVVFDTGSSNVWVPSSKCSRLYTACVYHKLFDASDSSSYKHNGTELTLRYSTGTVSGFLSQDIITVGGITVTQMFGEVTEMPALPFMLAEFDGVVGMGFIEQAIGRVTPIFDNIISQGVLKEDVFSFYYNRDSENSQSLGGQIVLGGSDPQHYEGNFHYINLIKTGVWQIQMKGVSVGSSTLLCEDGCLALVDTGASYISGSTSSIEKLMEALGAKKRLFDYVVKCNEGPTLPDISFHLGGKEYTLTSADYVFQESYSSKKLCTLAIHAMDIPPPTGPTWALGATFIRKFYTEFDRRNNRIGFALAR", "assay": "Primary renin inhibition assay: IC50 in buffer, 384 well MTP (Ang I EIA readout)", "assay_type": "biochemical", "description": "1. Enzyme Immuno Assay (EIA) to Estimate Ang I Accumulation and Renin Inhibition\n1.1 Preparation of Ang I-BSA Conjugate\n1.3 mg (1 μmol) of Ang I [1-10 (Bachem, H-1680)] and 17 mg (0.26 μmol) of BSA (Fluka, 05475) were dissolved in 4 mL of 0.1M phosphate buffer, pH 7.4, after which 2 mL of a 1:100 dilution of glutaraldehyde in H2O (Sigma G-5882) was added dropwise. The mixture was incubated overnight at 4° C., then dialyzed against 2 liters of 0.9% NaCl, twice for 4 h at rt, followed by dialysis against 2 liters of PBS 1× overnight at rt. The solution was then filtered with a Syringe filter, 0.45 μm (Nalgene, Cat. No. 194-2545). The conjugate can be stored in polypropylene tubes in 0.05% sodium azide at 4° C. for at least 12 months.\n1.2 Preparation of BSA-Ang I Coated MTP […]\nThe renin assay was adapted from an assay described before (Fischli W. et al., Hypertension, 1991, 18:22-31) and consists of two steps: in the first step, recombinant human renin is incubated with its substrate (commercial human tetradecapeptide renin substrate) to create the product Angiotensin I (Ang I). In the second step, the accumulated Ang I is measured by an immunological assay (enzyme immuno assay, EIA). […]"}}}
{"smiles": "Cc1cc(Cl)c(OCCOc2ccc(C3=C(C(=O)N(Cc4cccc(C)c4C)C4CC4)[C@H]4CNC[C@@H](C3)N4)cc2)c(Cl)c1", "note": "[Compound (I′), (1R,5S)-7-{4-[2-(2,6-dichloro-4-methylphenoxy)ethoxy]-phenyl}-3,9-diazabicyclo[3.3.1]non-6-ene-6-carboxylic acid cyclopropyl-(2,3-dimethylbenzyl)amide]", "values": [{"measurement": "activity in the animal model", "setting": "[1]; oral", "value": "active"}, {"measurement": "blood pressure decrease (maximal decrease of mean arterial pressure vs control group)", "setting": "[1]; single oral dose of 3 mg/kg", "value": 17, "unit": "mmHg"}, {"measurement": "blood pressure decrease (maximal decrease of mean arterial pressure vs control group)", "setting": "[1]; single oral dose of 10 mg/kg", "value": 30, "unit": "mmHg"}, {"measurement": "IC50", "setting": "[2]", "value": 0.3, "unit": "nM"}]}
